According to PubChem BioAssay (NCI):
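Interpolation was linear, between the two tested concentrations surrounding the appropriate level; five concentrations were tested over 48 hours in 96-well plates. TGI is the concentration that stops growth completely.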

Experiments:
Experiment in all cases: NCI anticancer screen, dose series, 48 h
[1] = system: SNB-19 CNS
[2] = system: UACC-257 melanoma
[3] = system: NCI-H226 lung
[4] = system: SNB-75 CNS
[5] = system: BT-549 breast
[6] = system: 786-0 renal
[7] = system: HS 578T breast
[8] = system: KM12 colon
[9] = system: UO-31 renal
[10] = system: HCT-116 colon
[11] = system: MOLT-4 leukemia
[12] = system: COLO 205 colon
[13] = system: PC-3 prostate
[14] = system: MDA-MB-231 breast
[15] = system: MDA-N
[16] = system: ACHN renal
[17] = system: HL-60(TB) leukemia
[18] = system: A498 renal
[19] = system: TK-10 renal
[20] = system: UACC-62 melanoma
[21] = system: EKVX NSCLC
[22] = system: HCT-15 colon
[23] = system: NCI-H522 lung
[24] = system: SK-OV-3 ovarian
[25] = system: OVCAR-8 ovarian
[26] = system: A549 NSCLC
[27] = system: SR leukemia
[28] = system: NCI-H460 lung
[29] = system: SW-620 colon
[30] = system: NCI-H23 lung
[31] = system: MALME-3M melanoma
[32] = system: M14 melanoma
[33] = system: SF-295 CNS
[34] = system: CAKI-1 renal
[35] = system: HOP-62 NSCLC
[36] = system: HT29 colon
[37] = system: MCF7 breast
[38] = system: SF-539 CNS
[39] = system: SF-268 CNS
[40] = system: SK-MEL-2 melanoma
[41] = system: SN12C renal
[42] = system: OVCAR-5 ovarian
[43] = system: SK-MEL-28 melanoma
[44] = system: HCC-2998 colon
[45] = system: RXF 393 renal
[46] = system: DU-145 prostate
[47] = system: K-562 leukemia
[48] = system: OVCAR-4 ovarian
[49] = system: U251 CNS
[50] = system: CCRF-CEM leukemia
[51] = system: OVCAR-3 ovarian
[52] = system: NCI/ADR-RES ovarian
[53] = system: SK-MEL-5 melanoma
[54] = system: T-47D breast
[55] = system: IGROV1 ovarian
[56] = system: HOP-92 NSCLC
[57] = system: LOX IMVI melanoma
[58] = system: RPMI-8226 leukemia
[59] = system: MDA-MB-435

`Cc1cc(C#N)c[n+](C)c1` was tested, and the TGI [1] was over 100 µM, the TGI [2] was over 100 µM and the TGI [3] was over 100 µM. For the same molecule, the TGI [4] was over 100 µM, the TGI [5] was over 100 µM and the TGI [6] was over 100 µM. For the same molecule, the TGI [7] was over 100 µM, the TGI [8] was over 100 µM and the TGI [9] was over 100 µM. The TGI [10] was over 100 µM, the TGI [11] was over 100 µM and the TGI [12] was over 100 µM. The TGI [13] was over 100 µM, the TGI [14] was over 100 µM and the TGI [15] was over 100 µM. The TGI [16] was over 100 µM, the TGI [17] was over 100 µM and the TGI [18] was over 100 µM. For the same molecule, the TGI [19] was over 100 µM, the TGI [20] was over 100 µM and the TGI [21] was over 100 µM. The TGI [22] was over 100 µM, the TGI [23] was over 100 µM and the TGI [24] was over 100 µM. It also gave a TGI [25] of over 100 µM, a TGI [26] of over 100 µM and a TGI [27] of over 100 µM. For the same molecule, the TGI [28] was over 100 µM, the TGI [29] was over 100 µM and the TGI [30] was over 100 µM. The TGI [31] was over 100 µM, the TGI [32] was over 100 µM and the TGI [33] was over 100 µM. The TGI [34] was over 100 µM, the TGI [35] was over 100 µM and the TGI [36] was over 100 µM. The TGI [37] was over 100 µM, the TGI [38] was over 100 µM and the TGI [39] was over 100 µM. For the same molecule, the TGI [40] was over 100 µM, the TGI [41] was over 100 µM and the TGI [42] was over 100 µM. The TGI [43] was over 100 µM, the TGI [44] was over 100 µM and the TGI [45] was over 100 µM. The TGI [46] was over 100 µM, the TGI [47] was over 100 µM and the TGI [48] was over 100 µM. For the same molecule, the TGI [49] was over 100 µM, the TGI [50] was over 100 µM and the TGI [51] was over 100 µM. The TGI [52] was over 100 µM, the TGI [53] was over 100 µM and the TGI [54] was over 100 µM. For the same molecule, the TGI [55] was over 100 µM.

In the case of `CC1=NCC[N+]1(CCc1ccccc1)Cc1ccccc1` (stereo unspecified), the TGI [1] is reported as over 100 µM, the TGI [2] is reported as 91.7 µM and the TGI [3] is reported as over 100 µM. The TGI [4] was over 100 µM, the TGI [5] was over 100 µM and the TGI [6] was over 100 µM. The TGI [7] was over 100 µM, the TGI [8] was over 100 µM and the TGI [9] was over 100 µM. The TGI [10] was over 100 µM, the TGI [12] was 21.5 µM and the TGI [14] was over 100 µM. It also gave a TGI [15] of over 100 µM, a TGI [16] of over 100 µM and a TGI [17] of 68.7 µM. It also gave a TGI [18] of over 100 µM, a TGI [19] of over 100 µM and a TGI [20] of over 100 µM. It also gave a TGI [21] of over 100 µM, a TGI [22] of over 100 µM and a TGI [23] of 72.3 µM. The TGI [24] was over 100 µM, the TGI [25] was over 100 µM and the TGI [26] was over 100 µM. It also gave a TGI [27] of over 100 µM, a TGI [28] of over 100 µM and a TGI [29] of over 100 µM. It also gave a TGI [30] of over 100 µM, a TGI [31] of over 100 µM and a TGI [56] of 49.8 µM. For the same molecule, the TGI [32] was over 100 µM, the TGI [33] was over 100 µM and the TGI [35] was over 100 µM. It also gave a TGI [36] of over 100 µM, a TGI [37] of over 100 µM and a TGI [39] of over 100 µM. The TGI [40] was over 100 µM, the TGI [41] was over 100 µM and the TGI [57] was over 100 µM. The TGI [58] was 69.8 µM, the TGI [42] was over 100 µM and the TGI [43] was over 100 µM. For the same molecule, the TGI [44] was over 100 µM, the TGI [45] was over 100 µM and the TGI [46] was over 100 µM. For the same molecule, the TGI [47] was 31 µM, the TGI [48] was over 100 µM and the TGI [49] was over 100 µM. It also gave a TGI [50] of over 100 µM, a TGI [51] of 91 µM and a TGI [52] of over 100 µM. For the same molecule, the TGI [53] was over 100 µM, the TGI [54] was over 100 µM and the TGI [55] was over 100 µM.

For `COc1cc(/C=C2/SC(c3ccccc3)N(c3cccc(NC(C)=O)c3)C2=O)cc(OC)c1OC` (stereo unspecified), the TGI [1] was over 100 µM, the TGI [2] was over 100 µM and the TGI [3] was over 100 µM. For the same molecule, the TGI [5] was over 100 µM, the TGI [6] was over 100 µM and the TGI [7] was over 100 µM. It also gave a TGI [8] of over 100 µM, a TGI [9] of over 100 µM and a TGI [10] of over 100 µM. For the same molecule, the TGI [11] was over 100 µM, the TGI [12] was over 100 µM and the TGI [15] was over 100 µM. The TGI [16] was over 100 µM, the TGI [17] was over 100 µM and the TGI [18] was over 100 µM. For the same molecule, the TGI [19] was over 100 µM, the TGI [20] was over 100 µM and the TGI [21] was over 100 µM. It also gave a TGI [22] of over 100 µM, a TGI [23] of 73.6 µM and a TGI [24] of over 100 µM. For the same molecule, the TGI [25] was over 100 µM, the TGI [26] was over 100 µM and the TGI [27] was over 100 µM. It also gave a TGI [28] of over 100 µM, a TGI [29] of over 100 µM and a TGI [30] of over 100 µM. For the same molecule, the TGI [31] was over 100 µM, the TGI [56] was over 100 µM and the TGI [32] was over 100 µM. It also gave a TGI [33] of over 100 µM, a TGI [34] of over 100 µM and a TGI [35] of over 100 µM. It also gave a TGI [36] of over 100 µM, a TGI [37] of over 100 µM and a TGI [38] of over 100 µM. It also gave a TGI [39] of over 100 µM, a TGI [41] of over 100 µM and a TGI [57] of over 100 µM. For the same molecule, the TGI [58] was over 100 µM, the TGI [42] was over 100 µM and the TGI [43] was over 100 µM. The TGI [44] was over 100 µM, the TGI [45] was over 100 µM and the TGI [46] was over 100 µM. The TGI [47] was over 100 µM, the TGI [48] was over 100 µM and the TGI [59] was over 100 µM. For the same molecule, the TGI [51] was over 100 µM, the TGI [52] was over 100 µM and the TGI [53] was over 100 µM. It also gave a TGI [54] of over 100 µM.
